Results: patent US20240383874A1, “BENZENE RING DERIVATIVE, AND COMPOSITION AND PHARMACEUTICAL USE THEREOF” (Xizang Haisco Pharmaceutical Co., Ltd., priority 2020, published 2024)
Counter-ions that a name gives are not always drawn. Like-named read-outs stand apart in the source and are kept apart here.

Key:
22RV1 cells = experiment: Experiment 2 on inhibiting 22RV1 cell proliferation (7 days, CellTiter-Glo); format: cell-based; conditions: 1% css-FBS phenol red-free medium, incubated with compound 7 days, read-out: IC50 values on proliferation inhibition of 22RV1 cells
How it was run: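 22RV1 cells plated at 2000/well in phenol red-free medium with 1% css-FBS and treated next day with compound for 7 days at 37 °C. Viability read by CellTiter-Glo luminescence relative to DMSO vehicle; IC50 from dose-response fit.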

[1] = Pharmacokinetic test in rats; format: in vivo; conditions: rat, po; male SD rats, single dose i.g. 5 mg/kg, plasma, 0-24 h
Method: Test objective: in this test, a single dose of test compounds was administered to SD rats intragastrically, and the concentrations of the test compounds in plasma of the rats were measured to evaluate pharmacokinetic characteristics of the test compounds in the rats.
Test animals: male SD rats, 200-250 g, 6-8 weeks old, 3 rats/compound, purchased from Chengdu Dossy Experimental Animals Co., Ltd.
Test method: on the day of the test, 3 SD rats were randomly grouped according to their body weights. The animals were fasted with water available for 12 to 14 hours one day before the administration of a test compound, and were fed 4 hours after the administration.
Sampling: before and after the administration, 0.1 mL of blood was taken from the orbits of the rats under isoflurane anesthesia, and placed in an EDTAK2 centrifuge tube. Centrifugation was carried out at 5000 rpm at 4C for […], and the plasma was collected.
Time points for plasma collection in G1 group: 0, 5 min, 15 min, 30 min, 1 h, 2 h, 4 h, 6 h, 8 h, and 24 h.
Before analysis and detection, all samples were stored at −80° C. The samples were analyzed quantitatively by LC-MS/MS.

SMILES	IC50 (22RV1 cells; Homo sapiens, 22Rv1, 168 h) [nM]	AUC(0-t) [1] [ng·h/mL]	IC50 (22RV1 cells) [nM]
CC(C)(c1ccc(OCc2ccnc(N3CCC(CN4CCC(C5CCN(c6ccc7c(c6)C(=O)N(C6CCC(=O)NC6=O)C7=O)CC5)CC4)CC3)n2)cc1)c1cc(Cl)cc(C#N)c1 (centres unmarked) [Compound 37 trifluoroacetate, 3-chloro-5-(2-(4-((2-(4-((1′-(2-(2,6-dioxopiperidin-3-yl)-1,3-dioxoisoindolin-5-yl)-[4,4′-bipiperidin]-1-yl)methyl)piperidin-1-yl)pyrimidin-4-yl)methoxy)phenyl)propan-2-yl)benzonitrile]	507	867 ± 66	–
CC(C)(c1ccc(OCc2ccnc(N3CCC4(CC3)CN(CC3CCN(c5ccc6c(c5)C(=O)N(C5CCC(=O)NC5=O)C6=O)CC3)C4)n2)cc1)c1cc(Cl)cc(C#N)c1 (centres unmarked) [Compound 45, 3-chloro-5-(2-(4-((2-(2-((1-(2-(2,6-dioxopiperidin-3-yl)-1,3-dioxoisoindolin-5-yl)piperidin-4-yl)methyl)-2,7-diazaspiro[3.5]nonan-7-yl)pyrimidin-4-yl)methoxy)phenyl)propan-2-yl)benzonitrile]	–	452 ± 137	–
CC(C)(c1ccc(OCc2ccnc(N3CCC(CN4CCC(C5CCN(c6cc7c(cc6F)C(=O)N(C6CCC(=O)NC6=O)C7=O)CC5)CC4)CC3)n2)cc1)c1cc(Cl)cc(C#N)c1 (centres unmarked) [Compound 78, 3-chloro-5-(2-(4-((2-(4-((1′-(2-(2,6-dioxopiperidin-3-yl)-6-fluoro-1,3-dioxoisoindolin-5-yl)-[4,4′-bipiperidin]-1-yl)methyl)piperidin-1-yl)pyrimidin-4-yl)methoxy)phenyl)propan-2-yl)benzonitrile]	–	2350 ± 309	–
Cn1c(=O)n(C2CCC(=O)NC2=O)c2ccc(N3CCC(C4CCN(CC5CCN(c6nccc(COc7ccc(C(C)(C)c8cc(Cl)c(OCCCl)c(C#N)c8)cc7)n6)CC5)CC4)CC3)cc21 (centres unmarked) [Compound 98 trifluoroacetate, 3-chloro-2-(2-chloroethoxy)-5-(2-(4-((2-(4-((1′-(1-(2,6-dioxopiperidin-3-yl)-3-methyl-2-oxo-2,3-dihydro-1H-benzo[d]imidazol-5-yl)-[4,4′-bipiperidin]-1-yl)methyl)piperidin-1-yl)pyrimidin-4-yl)methoxy)phenyl)propan-2-yl)benzonitrile]	621	492 ± 266	–
[2H]C([2H])([2H])Oc1c(Cl)cc(C(C)(C)c2ccc(OCc3ccnc(N4CCC(CN5CCC(C6CCN(c7ccc8c(c7)n(C)c(=O)n8C7CCC(=O)NC7=O)CC6)CC5)CC4)n3)cc2)cc1C#N (centres unmarked) [Compound 99 trifluoroacetate, 3-chloro-5-(2-(4-((2-(4-((1′-(1-(2,6-dioxopiperidin-3-yl)-3-methyl-2-oxo-2,3-dihydro-1H-benzo[d]imidazol-5-yl)-[4,4′-bipiperidin]-1-yl)methyl)piperidin-1-yl)pyrimidin-4-yl)methoxy)phenyl)propan-2-yl)-2-(methoxy-d3)benzonitrile]	427	541 ± 80	–
CCOc1c(Cl)cc(C(C)(C)c2ccc(OCc3ccnc(N4CCC(CN5CCC(C6CCN(c7ccc(C(=O)NC8CCC(=O)NC8=O)nc7)CC6)CC5)CC4)n3)cc2)cc1C#N (centres unmarked) [Compound 111 trifluoroacetate, 5-(1′-((1-(4-((4-(2-(3-chloro-5-cyano-4-ethoxyphenyl)propan-2-yl)phenoxy)methyl)pyrimidin-2-yl)piperidin-4-yl)methyl)-[4,4′-bipiperidin]-1-yl)-N-(2,6-dioxopiperidin-3-yl)picolinamide]	290	574 ± 59	–
COc1c(Cl)cc(C(C)(C)c2ccc(OCc3ccnc(N4CCC(CN5CCC(C6CCN(c7ccc(C(=O)NC8CCC(=O)NC8=O)nc7)CC6)CC5)CC4)n3)cc2)cc1C#N (centres unmarked) [Compound 112 trifluoroacetate, 5-(1′-((1-(4-((4-(2-(3-chloro-5-cyano-4-methoxyphenyl)propan-2-yl)phenoxy)methyl)pyrimidin-2-yl)piperidin-4-yl)methyl)-[4,4′-bipiperidin]-1-yl)-N-(2,6-dioxopiperidin-3-yl)picolinamide]	463	827 ± 211	–

Other lines, results leading:

IC50 (22RV1 cells; Homo sapiens, 22Rv1, 168 h) [nM]	AUC(0-t) [1] [ng·h/mL]	IC50 (22RV1 cells) [nM]	SMILES
–	686 ± 336	–	CCOc1c(Cl)cc(C(C)(C)c2ccc(OCc3ccnc(N4CCC(CN5CCC6(CC5)CN(c5ccc7c(c5)n(C)c(=O)n7C5CCC(=O)NC5=O)C6)CC4)n3)cc2)cc1C#N (centres unmarked) [Compound 118 trifluoroacetate, 3-chloro-5-(2-(4-((2-(4-((2-(1-(2,6-dioxopiperidin-3-yl)-3-methyl-2-oxo-2,3-dihydro-1H-benzo[d]imidazol-5-yl)-2,7-diazaspiro[3.5]nonan-7-yl)methyl)piperidin-1-yl)pyrimidin-4-yl)methoxy)phenyl)propan-2-yl)-2-ethoxybenzonitrile]
–	1430 ± 209	–	COc1c(Cl)cc(C(C)(C)c2ccc(OCc3ccnc(N4CCC(CN5CCC(C6CCN(c7ccc(N8CCC(=O)NC8=O)cc7)CC6)CC5)CC4)n3)cc2)cc1C#N [Compound 120, 3-chloro-5-(2-(4-((2-(4-((1′-(4-(2,4-dioxotetrahydropyrimidin-1(2H)-yl)phenyl)-[4,4′-bipiperidin]-1-yl)methyl)piperidin-1-yl)pyrimidin-4-yl)methoxy)phenyl)propan-2-yl)-2-methoxybenzonitrile]
1010	–	–	Cn1c(=O)n(C2CCC(=O)NC2=O)c2ccc(C3CCN(C4CCC5(CC4)CN(c4nccc(COc6ccc(C(C)(C)c7cc(Cl)cc(C#N)c7)cc6)n4)C5)CC3)cc21 (centres unmarked) [Compound 122 trifluoroacetate, 3-chloro-5-(2-(4-((2-(7-(4-(1-(2,6-dioxopiperidin-3-yl)-3-methyl-2-oxo-2,3-dihydro-1H-benzo[d]imidazol-5-yl)piperidin-1-yl)-2-azaspiro[3.5]nonan-2-yl)pyrimidin-4-yl)methoxy)phenyl)propan-2-yl)benzonitrile]
527	1190 ± 724	–	COc1c(Cl)cc(C(C)(C)c2ccc(OCc3ccnc(N4CCC(CN5CCC(C6CCN(c7cc8c(cc7F)n(C7CCC(=O)NC7=O)c(=O)n8C)CC6)CC5)CC4)n3)cc2)cc1C#N (centres unmarked) [Compound 123 trifluoroacetate, 3-chloro-5-(2-(4-((2-(4-((1′-(1-(2,6-dioxopiperidin-3-yl)-6-fluoro-3-methyl-2-oxo-2,3-dihydro-1H-benzo[d]imidazol-5-yl)-[4,4′-bipiperidin]-1-yl)methyl)piperidin-1-yl)pyrimidin-4-yl)methoxy)phenyl)propan-2-yl)-2-methoxybenzonitrile]
576	–	–	Cn1c(=O)n(C2CCC(=O)NC2=O)c2cccc(C3CCN(CC4(F)CCN(C5CCN(c6nccc(COc7ccc(C(C)(C)c8cc(Cl)cc(C#N)c8)cc7)n6)CC5)CC4)CC3)c21 (centres unmarked) [Compound 124 trifluoroacetate, 3-chloro-5-(2-(4-((2-(4-((4-(1-(2,6-dioxopiperidin-3-yl)-3-methyl-2-oxo-2,3-dihydro-1H-benzo[d]imidazol-4-yl)piperidin-1-yl)methyl)-4-fluoro-[1,4′-bipiperidin]-1′-yl)pyrimidin-4-yl)methoxy)phenyl)propan-2-yl)benzonitrile]
–	1860 ± 185	549	CC(Oc1ccc(C(C)(C)c2cc(Cl)cc(C#N)c2)cc1)c1ccnc(N2CCC(CN3CCC(C4CCN(c5cc6c(cc5F)C(=O)N(C5CCC(=O)NC5=O)C6=O)CC4)CC3)CC2)n1 (centres unmarked) [Compound 127, 3-chloro-5-(2-(4-(1-(2-(4-((1′-(2-(2,6-dioxopiperidin-3-yl)-6-fluoro-1,3-dioxoisoindolin-5-yl)-[4,4′-bipiperidin]-1-yl)methyl)piperidin-1-yl)pyrimidin-4-yl)ethoxy)phenyl)propan-2-yl)benzonitrile]
